Key:
[1] = tested on: P-P70S6K (T389); assay: Cell based AlphaLISA assay, inhibition of P-P70S6K (T389) (mTORC1 substrate phosphorylation) in MDA-MB-468 cells; conditions: Homo sapiens, 4 h, AlphaLISA, two to four hours at 37° C., read-out: pIC50 for Inhibition of mTORC1 and mTORC2 Substrate Phosphorylation, P-P70S6K-(T389) (converted)
Method in brief: (§1)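 AlphaLISA SureFire Ultra detection of phosphorylated substrate in lysed cells; duplicate Alpha reads; control-normalized IC50 fitting.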

[2] = tested on: P-4E-BP1 (T37/46); assay: Cell based AlphaLISA assay, inhibition of P-4E-BP1 (T37/46) (mTORC1 substrate phosphorylation) in MDA-MB-468 cells; conditions: Homo sapiens, MDA-MB-468, 4 h, AlphaLISA, two to four hours at 37° C., read-out: pIC50 for Inhibition of mTORC1 and mTORC2 Substrate Phosphorylation, P-4E-BP1-(T37/46) (converted)
Method in brief: as §1

[3] = tested on: P-Akt (S473); assay: Cell based AlphaLISA assay, inhibition of P-Akt (S473) (mTORC2 substrate phosphorylation) in MDA-MB-468 cells; conditions: Homo sapiens, MDA-MB-468, 4 h, AlphaLISA, two to four hours at 37° C., read-out: pIC50 for Inhibition of mTORC1 and mTORC2 Substrate Phosphorylation, p-AKT 1/2/3 -(S473) (converted)
Method in brief: as §1

SMILES	IC50 [1] [nM]	IC50 [2] [nM]	IC50 [3] [nM]
CO[C@H]1C[C@@H]2CC[C@@H](C)[C@@](O)(O2)C(=O)C(=O)N2CCCC[C@H]2C(=O)O[C@H]([C@H](C)C[C@@H]2CC[C@@H](OCCCCc3cn(CCOCCOCCOCCOCCOCCOCCC(=O)NCc4ccc(Cn5nc(-c6ccc7oc(N)nc7c6)c6c(N)ncnc65)cc4)nn3)[C@H](OC)C2)CC(=O)[C@H](C)/C=C(\C)[C@@H](O)[C@@H](OC)C(=O)[C@H](C)C[C@H](C)/C=C/C=C/C=C/1C [Example 86]	< 1	< 3.16	3.16 to 31.6
CO[C@H]1C[C@@H]2CC[C@@H](C)[C@@](O)(O2)C(=O)C(=O)N2CCCC[C@H]2C(=O)O[C@H]([C@H](C)C[C@@H]2CC[C@H](n3nncc3-c3cccc(-c4cnc(N5CCN(Cc6cn(CCOCCOCCOCCC(=O)NCCCCn7nc(-c8ccc9oc(N)nc9c8)c8c(N)ncnc87)nn6)C(CO)C5)nc4)c3)[C@H](OC)C2)CC(=O)[C@H](C)/C=C(\C)[C@@H](O)[C@@H](OC)C(=O)[C@H](C)C[C@H](C)/C=C/C=C/C=C/1C (stereo partly drawn) [Example 34]	1 to 10	3.16 to 31.6	31.6 to 1000
CO[C@H]1C[C@@H]2CC[C@@H](C)[C@@](O)(O2)C(=O)C(=O)N2CCCC[C@H]2C(=O)O[C@H]([C@H](C)C[C@@H]2CC[C@@H](O)[C@H](OC)C2)C/C(=N/OCc2cn(CCOCCOCCOCCOCCOCCOCCOCCOCCC(=O)NCCCCn3nc(-c4ccc5oc(N)nc5c4)c4c(N)ncnc43)nn2)[C@H](C)/C=C(\C)[C@@H](O)[C@@H](OC)C(=O)[C@H](C)C[C@H](C)/C=C/C=C/C=C/1C [Example 63]	10 to 1000	31.6 to 1000	31.6 to 1000
CO[C@H]1C[C@@H]2CC[C@@H](C)[C@@](O)(O2)C(=O)C(=O)N2CCCC[C@H]2C(=O)O[C@H]([C@H](C)C[C@@H]2CC[C@H](n3nncc3-c3cccc(-c4cnc(N5CCN(Cc6cn(CCOCCOCCOCCC(=O)NCCCCn7nc(-c8ccc9oc(N)nc9c8)c8c(N)ncnc87)nn6)CC5)nc4)c3)[C@H](OC)C2)CC(=O)[C@H](C)/C=C(\C)[C@@H](O)[C@@H](OC)C(=O)[C@H](C)C[C@H](C)/C=C/C=C/C=C/1C [Example 31]	< 1	< 3.16	3.16 to 31.6
CO[C@H]1C[C@@H]2CC[C@@H](C)[C@@](O)(O2)C(=O)C(=O)N2CCCC[C@H]2C(=O)O[C@H]([C@H](C)C[C@@H]2CC[C@H](n3cc(COC(=O)NCCOCCOCCOCCC(=O)NCCOCCOCCC(=O)NCCCCn4nc(-c5ccc6oc(N)nc6c5)c5c(N)ncnc54)nn3)[C@H](OC)C2)C/C(=N/OC(C)(C)C)[C@H](C)/C=C(\C)[C@@H](O)[C@@H](OC)C(=O)[C@H](C)C[C@H](C)/C=C/C=C/C=C/1C [Example 158]	> 1000	> 1000	> 1000
CCO[C@@H]1C[C@@H]([C@H](C)C[C@@H]2CC[C@H](n3cc(COC(=O)NCCOCCOCCOCCC(=O)NCCOCCOCCC(=O)NCCCCn4nc(-c5cc6cc(O)ccc6[nH]5)c5c(N)ncnc54)nn3)[C@H](OC)C2)OC(=O)[C@@H]2CCCCN2C(=O)C(=O)[C@]2(O)O[C@@H](CC[C@H]2C)C[C@H](OC)/C(C)=C/C=C/C=C/[C@@H](C)C[C@@H](C)C(=O)[C@H](OC)[C@H](O)/C(C)=C/[C@H]1C [Example 148]	10 to 1000	> 1000	> 1000
CO[C@H]1C[C@@H]2CC[C@@H](C)[C@@](O)(O2)C(=O)C(=O)N2CCCC[C@H]2C(=O)O[C@H]([C@H](C)C[C@@H]2CC[C@H](n3cc(COC(=O)NCCOCCOCCOCCOCCC(=O)NCCOCCOCCOCCOCCC(=O)NCCCCn4nc(-c5cc6cc(O)ccc6[nH]5)c5c(N)ncnc54)nn3)[C@H](OC)C2)CC(=O)[C@H](C)/C=C(\C)[C@@H](O)[C@@H](OC)C(=O)[C@H](C)C[C@H](C)/C=C/C=C/C=C/1C [Example 127]	1 to 10	3.16 to 31.6	31.6 to 1000
CO[C@H]1C[C@@H]2CC[C@@H](C)[C@@](O)(O2)C(=O)C(=O)N2CCCC[C@H]2C(=O)O[C@H]([C@H](C)C[C@@H]2CC[C@@H](O)[C@H](OC)C2)C[C@@H](O)[C@H](C)/C=C(\C)[C@@H](O)[C@@H](OC)C(=NOCc2cn(CCOCCOCCOCCOCCOCCOCCOCCOCCC(=O)NCCCCn3nc(-c4cc5cc(O)ccc5[nH]4)c4c(N)ncnc43)nn2)[C@H](C)C[C@H](C)/C=C/C=C/C=C/1C [Example 94]	1 to 10	3.16 to 31.6	> 1000
CO[C@H]1C[C@@H]2CC[C@@H](C)[C@@](O)(O2)C(=O)C(=O)N2CCCC[C@H]2C(=O)O[C@H]([C@H](C)C[C@@H]2CC[C@@H](O)[C@H](OC)C2)C[C@@H](O)[C@H](C)/C=C(\C)[C@@H](O)[C@@H](OC)C(=NOCc2cn(-c3cnc(N4CCN(c5ncc(C(=O)NCCOCCC(=O)NCCCCn6nc(-c7ccc8oc(N)nc8c7)c7c(N)ncnc76)cn5)CC4)nc3)nn2)[C@H](C)C[C@H](C)/C=C/C=C/C=C/1C [Example 191]	< 1	< 3.16	> 1000

Reference: US20230093861A1, “RAPAMYCIN ANALOGS AS MTOR INHIBITORS” (Revolution Medicines, Inc., priority 2017, published 2023)
